Like-named read-outs stand apart in the source and are kept apart here.
Experiments:
healthy, adult humans = assay: oral pterostilbene in humans, whole blood glucose by finger prick glucometer; type: in vivo
Protocol: In work described herein using pterostilbene orally in humans (supplied by Chromadex, 10005 Muirlands Boulevard, Suite G, Irvine, Calif. 92618, USA) dosing of oral pterostilbene was initially started at a lower dose than the calculated HED, with the intent of titrating the dose up as needed.
The test subject was immediately treated with oral glucose and other carbohydrates and recovered without other incident. […] At oral dosing above 0.165 mg/kg (actual dose tested 20 mg) pterostilbene is capable of inducing profound hypoglycemia (e.g., whole blood glucose at or below 55 mg/dL) and the side effects associated with this condition. Accordingly, at the doses predicted by the FDA/CDER formula, oral administration of pterostilbene to humans would likely be fatal.

humans = assay: oral pterostilbene combined with nutrients, athletic performance in humans; type: in vivo, human
Protocol: Additional work described herein addressed the effects of combining oral pterostilbene with various nutrients on athletic performance. Specifically, oral pterostilbene was administered with creatine supplements, and the effect of this combination was compared with the effect of creatine supplements alone.
The addition of exogenous dietary carbohydrates such as glucose, isolmaltulose, leucrose, trehalose, trehalulose, amylose, ribose, and maltodextrin to the creatine-containing supplement allowed for even higher pterostilbene dosing (up to 25 mg of oral pterostilbene) and produced an even more pronounced, immediate increase in athletic performance without the onset of hypoglycemia.
While not wishing to be bound by any particular theory, the inventors believe that pterostilbene increases or otherwise effects a change in the rate and quantity of the transfer of these nutrients from the blood plasma into the tissues and organs. Such dietary nutrients include, but are not limited to, creatine and its salts esters, amides and chelates, creatinol-O-phosphate, branched chain amino acids (leucine, isoleucine, valine) and their salts, esters, amides and chelates, branched chain keto-acids including, but not limited to ketoisocaproate and its salts, other ergogenic, performance-enhancing amino acids including, but not limited to, taurine, beta-alanine, arginine, ornithine, aspartic acid, glutamine, glutaric acid, agmatine, citrulline, norvaline, glycine, cysteine and their salts, ester, amides and chelates, performance enhancing dipeptides including, but not limited to, carnitine, anserine and carnosine and their salts and esters and proteins that are known to contain dipeptides such as whey or soy or egg protein isolates or concentrates or any combination of these non-carbohydrate based dietary nutrients.
Further, the addition and oral consumption of one or more exogenous dietary carbohydrates, including but not limited to rice oligodextrin, amylose, amylopectin, glucose, maltodextrin, maltose, isolmaltulose, leucrose, trehalulose, ribose, trehalose, and/or fructose in conjunction with pterostilbene and a non-carbohydrate based dietary nutrient or nutrients simultaneously further increases the athletic performance-enhancing effects of pterostilbene and the non-carbohydrate dietary nutrient(s) by up to 50% and also increases the tolerability of pterostilbene in humans by up to 50%.

[1] = ABAP-derived peroxyl radicals; cited from earlier work
normal human fibroblasts = conditions: cited from earlier work
[2] = tested on: streptozotocin-induced hyperglycemic rats; conditions: cited from earlier work
rats = conditions: doses 10 mg/kg up to 40 mg/kg bodyweight; cited from earlier work
DPPH radical scavenging = conditions: converted value in brackets
[3] = inhibition of citronellal thermo-oxidation; conditions: converted value in brackets
[4] = total reactive antioxidant potential against ABAP-derived peroxyl radicals; conditions: converted value in brackets
MAO leukemia cell line = conditions: relative to cis-resveratrol; cited from earlier work
[5] = 5 mg oral (0.0486 mg/kg) added to creatine-containing liquid supplement vs supplement alone, one healthy person
[6] = pterostilbene plus non-carbohydrate nutrient(s) plus exogenous dietary carbohydrates, oral

Row | Structure (SMILES) | drop of whole blood glucose level (healthy, adult humans; 30 mg oral single dose (about 0.248 mg/kg), one healthy person, within fifteen minutes) | oral dose above which profound hypoglycemia and its side effects are induced (healthy, adult humans; profound hypoglycemia e.g. whole blood glucose at or below 55 mg/dL, actual dose tested 20 mg) | effect on athletic performance (humans; 3 mg to 20 mg added to a creatine-containing supplement) | immediate increase in anaerobic work capacity (humans; [5]) | immediate increase in maximal exertion power (humans; [5]) | oral dose possible without the onset of hypoglycemia (humans; human, in vivo, po) | further increase of athletic performance-enhancing effects by added carbohydrates (humans; [6]) | increase of tolerability in humans by added carbohydrates (humans; [6]) | total reactive antioxidant potential [1] | reduction of thiobarbituric acid reactive substances (TBARS) production (normal human fibroblasts) | lowering of blood glucose level [2] | adverse effects (rats) | EC50, scavenging of DPPH radicals (DPPH radical scavenging) | EQ value, inhibition of cintronellal thermo-oxidation [3] | total reactive antioxidant potential [4] | ability to induce apoptosis compared to cis-resveratrol (MAO leukemia cell line)
1 | COc1cc(/C=C/c2ccc(O)cc2)cc(OC)c1 [pterostilbene, trans-3,5-dimethoxy-4′-hydroxystilbene] | about 50 mg/dL | above 0.165 mg/kg | improves athletic performance dramatically | ~12% | ~8% | up to 25 mg | up to 50% | up to 50% | 237 ± 58 mM | 61% | 42% | no adverse effects noted | ~7680 µg/mL | ~90.9 mg/mL | ~60.7 mg/mL | –
2 | Oc1ccc(/C=C/c2cc(O)cc(O)c2)cc1 [trans-reseveratrol] | – | – | – | – | – | – | – | – | – | – | – | – | – | – | – | ten times more potent
